# Experimental data: US7012067B2, “Blood lipid ameliorant composition” (Sankyo Company, Limited, priority 2000, dated 2006)
# Experiments:
# Format in all cases: in vivo
# blood lipid peroxides = assay: Blood lipid peroxide levels in dogs (Yagi's methods); conditions: beagle dogs, oral once daily, relative to pre-dosing level (100), mean of 5, simvastatin 1 mg/kg
# Source text: (§1) Beagle dogs aged 5 months were purchased from Covance Research Products Inc. and used after 1 month of quarantine and acclimatisaton breeding.
# (§2) The required amounts of simvastatin or each component of the combination drug calculated from the body weight of each dog were weighed and filled in a gelatin capsule (½ ounce) purchased from TORPAC Inc. Capsules filled with simvastatin were stocked in a refrigerator and those filled with combination drugs stocked at room temperature until use.
# (§3) The combination drugs were filled in identical gelatin capsules.
# (§4) Simvastatin or combination drug capsules were forcibly orally administered to each of the test animals once daily between 9:00 and 12:30. Animals were fasted for 2 or 3 hr prior to administration of the capsules.
# (§5) The administration period was 11 successive days.
# (§6) Blood (10 mL) was collected from the superficial radial vein 2 or 1 weeks prior to administration and 4, 8, and 12 days after administration was started. Animals were fasted for approximately 18 hr prior to blood collection. Collected blood was placed in a test tube and left at room temperature for 0.5-1 hr, before being centrifuged (3,000 rpm for 10 min). The obtained serum was used for assays of blood levels of lipid peroxides, total cholesterol, triglycerides, free fatty acids, GOT, and CPK according to Yagi's methods, CEH-COD-POD methods, GK-GPO-POD methods, ACS-ACOD methods, UV-rate methods, and UV-rate methods, respectively. (For ACS-ACOD (Acyl-CoA synthetase-Acyl-CoA oxidase peroxidase) methods, CEH-COD-POD (Cholesterol ester hydrolase-Cholesteroloxidase-Peroxidase) methods, Yagis methods and GK-GPO-POD (Glycerokinase-Glycerolphosphateoxidase-Peroxidase)methods, see: Kanai's Manual of Clinical Laboratory Medicine; 31st Edition (September 1998), Kanehara & Co., Ltd.)
# (§7) All these levels were determined using a fluorometer (Hitachi, Ltd., F3000), a full automatic analyzer (Monarch, Instrumentation Laboratory), and an automatic analyzer (7170, Hitachi, Ltd.).
# (§8) All these values in dogs treated with one of the drugs described above were converted to their relative ratios against their averaged pre-dosing levels (100) determined 2 and 1 weeks prior to drug administration. The averaged value in each group was obtained from 5 animals per group.
# blood free fatty acids = assay: Blood free fatty acid levels in dogs (ACS-ACOD methods); conditions: beagle dogs, oral once daily, relative to pre-dosing level (100), mean of 5, simvastatin 1 mg/kg
# Source text: as §1, §2, §3, §4, §5, §6, §7, §8
# CPK = assay: Serum CPK levels in dogs (UV-rate methods); conditions: beagle dogs, oral once daily, relative to pre-dosing level (100), mean of 5, simvastatin 1 mg/kg, ascorbic acid 500 mg/kg
# Source text: as §1, §2, §3, §4, §5
# (§9) Blood (10 mL) was collected from the superficial radial vein 2 or 1 weeks prior to administration and 4, 8, and 12 days after administration was started. Animals were fasted for approximately 18 hr prior to blood collection. Collected blood was placed in a test tube and left at room temperature for 0.5-1 hr, before being centrifuged (3,000 rpm for 10 min). The obtained serum was used for assays of blood levels of lipid peroxides, total cholesterol, triglycerides, free fatty acids, GOT, and CPK according to Yagi's methods, CEH-COD-POD methods, GK-GPO-POD methods, ACS-ACOD methods, UV-rate methods, and UV-rate methods, respectively.
# as §8
# blood triglycerides = assay: Blood triglyceride levels in dogs (GK-GPO-POD methods); conditions: beagle dogs, oral once daily, relative to pre-dosing level (100), mean of 5
# Source text: as §1, §2, §3, §4, §5, §6, §7, §8
# blood total cholesterol = assay: Blood total cholesterol levels in dogs (CEH-COD-POD methods); conditions: beagle dogs, oral once daily, relative to pre-dosing level (100), mean of 5, simvastatin 1 mg/kg, taurine 1000 mg/kg
# Source text: as §1, §2, §3, §4, §5, §6, §7, §8
# GOT = assay: Serum GOT levels in dogs (UV-rate methods); conditions: beagle dogs, oral once daily, relative to pre-dosing level (100), mean of 5, simvastatin 1 mg/kg, Tocoph 300 mg/kg
# Source text: as §1, §2, §3, §4, §5, §9, §8
# [1] = simvastatin 1 mg/kg (dose cell of simvastatin alone empty), taurine 1000 mg/kg
# [2] = simvastatin 1 mg/kg, Tocoph 300 mg/kg
# [3] = simvastatin 1 mg/kg, pantethine 300 mg/kg
smiles,measurement,setting,value
"O=C1O[C@H]([C@@H](O)CO)C(O)=C1O [Ascorbic acid, ascorbic acid]","Blood Lipid Peroxide Levels after administration, 4 days",blood lipid peroxides; ascorbic acid 500 mg/kg,87.6
same,"Blood Lipid Peroxide Levels after administration, 8 days",blood lipid peroxides; ascorbic acid 500 mg/kg,89.9
same,"Blood Lipid Peroxide Levels after administration, 12 days",blood lipid peroxides; ascorbic acid 500 mg/kg,94.4
same,"Blood FFA Levels after administration, 4 days",blood free fatty acids; ascorbic acid 500 mg/kg,87.4
same,"Blood FFA Levels after administration, 8 days",blood free fatty acids; ascorbic acid 500 mg/kg,109.6
same,"Blood FFA Levels after administration, 12 days",blood free fatty acids; ascorbic acid 500 mg/kg,97.8
same,"CPK Levels after administration, 4 days",CPK,98.3
same,"CPK Levels after administration, 8 days",CPK,95.1
same,"CPK Levels after administration, 12 days",CPK,91.5
"CCCC(=O)OC[C@@H](OC(=O)CCC)[C@@H](OC(=O)CCC)[C@H](Cn1c2nc(=O)[nH]c(=O)c-2nc2cc(C)c(C)cc21)OC(=O)CCC [RFVb, riboflavin butyrate]","Blood Lipid Peroxide Levels after administration, 4 days",blood lipid peroxides; RFVb 200 mg/kg,88.9
same,"Blood Lipid Peroxide Levels after administration, 8 days",blood lipid peroxides; RFVb 200 mg/kg,101.0
same,"Blood Lipid Peroxide Levels after administration, 12 days",blood lipid peroxides; RFVb 200 mg/kg,80.8
same,"Blood FFA Levels after administration, 4 days",blood free fatty acids; RFVb 200 mg/kg,97.6
same,"Blood FFA Levels after administration, 8 days",blood free fatty acids; RFVb 200 mg/kg,101.2
same,"Blood FFA Levels after administration, 12 days",blood free fatty acids; RFVb 200 mg/kg,92.9
"CCC(C)(C)C(=O)O[C@H]1C[C@@H](C)C=C2C=C[C@H](C)[C@H](CC[C@@H]3C[C@@H](O)CC(=O)O3)[C@H]21 [Simvastatin, (+)-(1S,3R,7S,8S,8aR)-1,2,3,7,8,8a-hexahydro-3,7-dimethyl-8-[2-[(2R4R )-tetrahydro-4-hydroxy-6-oxo-2H-pyran-2-yl]ethyl]-1-naphthyl 2,2-dimethylbutanoate]","Blood Triglyceride Levels after administration, 4 days",blood triglycerides; [1],97.6
same,"Blood Triglyceride Levels after administration, 4 days",blood triglycerides; [2],96.2
same,"Blood Triglyceride Levels after administration, 4 days",blood triglycerides; [3],97.6
same,"Blood Triglyceride Levels after administration, 8 days",blood triglycerides; [1],88.9
same,"Blood Triglyceride Levels after administration, 8 days",blood triglycerides; [2],86.4
same,"Blood Triglyceride Levels after administration, 8 days",blood triglycerides; [3],88.9
same,"Blood Triglyceride Levels after administration, 12 days",blood triglycerides; [1],89.3
same,"Blood Triglyceride Levels after administration, 12 days",blood triglycerides; [2],91.0
same,"Blood Triglyceride Levels after administration, 12 days",blood triglycerides; [3],89.3
same,"Blood Lipid Peroxide Levels after administration, 4 days",blood lipid peroxides; RFVb 200 mg/kg,96.2
same,"Blood Lipid Peroxide Levels after administration, 4 days",blood lipid peroxides; ascorbic acid 500 mg/kg,96.2
same,"Blood Lipid Peroxide Levels after administration, 4 days",blood lipid peroxides; pantethine 300 mg/kg,96.2
same,"Blood Lipid Peroxide Levels after administration, 4 days",blood lipid peroxides; taurine 1000 mg/kg,96.2
same,"Blood Lipid Peroxide Levels after administration, 8 days",blood lipid peroxides; RFVb 200 mg/kg,86.4
same,"Blood Lipid Peroxide Levels after administration, 8 days",blood lipid peroxides; ascorbic acid 500 mg/kg,86.4
same,"Blood Lipid Peroxide Levels after administration, 8 days",blood lipid peroxides; pantethine 300 mg/kg,86.4
same,"Blood Lipid Peroxide Levels after administration, 8 days",blood lipid peroxides; taurine 1000 mg/kg,86.4
same,"Blood Lipid Peroxide Levels after administration, 12 days",blood lipid peroxides; RFVb 200 mg/kg,91.0
same,"Blood Lipid Peroxide Levels after administration, 12 days",blood lipid peroxides; ascorbic acid 500 mg/kg,91.0
same,"Blood Lipid Peroxide Levels after administration, 12 days",blood lipid peroxides; pantethine 300 mg/kg,91.0
same,"Blood Lipid Peroxide Levels after administration, 12 days",blood lipid peroxides; taurine 1000 mg/kg,91.0
same,"Blood FFA Levels after administration, 4 days",blood free fatty acids; RFVb 200 mg/kg,93.8
same,"Blood FFA Levels after administration, 4 days",blood free fatty acids; Tocoph 300 mg/kg,93.8
same,"Blood FFA Levels after administration, 4 days",blood free fatty acids; ascorbic acid 500 mg/kg,93.8
same,"Blood FFA Levels after administration, 8 days",blood free fatty acids; RFVb 200 mg/kg,99.3
same,"Blood FFA Levels after administration, 8 days",blood free fatty acids; Tocoph 300 mg/kg,99.3
same,"Blood FFA Levels after administration, 8 days",blood free fatty acids; ascorbic acid 500 mg/kg,99.3
same,"Blood FFA Levels after administration, 12 days",blood free fatty acids; RFVb 200 mg/kg,97.0
same,"Blood FFA Levels after administration, 12 days",blood free fatty acids; Tocoph 300 mg/kg,97.0
same,"Blood FFA Levels after administration, 12 days",blood free fatty acids; ascorbic acid 500 mg/kg,97.0
same,"Blood Total Cholesterol Levels after administration, 4 days",blood total cholesterol,102.1
same,"Blood Total Cholesterol Levels after administration, 8 days",blood total cholesterol,93.2
same,"Blood Total Cholesterol Levels after administration, 12 days",blood total cholesterol,86.6
same,"GOT Levels after administration, 4 days",GOT,98.1
same,"GOT Levels after administration, 8 days",GOT,93.9
same,"GOT Levels after administration, 12 days",GOT,100.4
same,"CPK Levels after administration, 4 days",CPK,94.5
same,"CPK Levels after administration, 8 days",CPK,99.4
same,"CPK Levels after administration, 12 days",CPK,91.0
"NCCS(=O)(=O)O [Taurine, 2-aminoethanesulfonic acid]","Blood Triglyceride Levels after administration, 4 days",blood triglycerides; [1],98.6
same,"Blood Triglyceride Levels after administration, 8 days",blood triglycerides; [1],95.8
same,"Blood Triglyceride Levels after administration, 12 days",blood triglycerides; [1],80.8
same,"Blood Lipid Peroxide Levels after administration, 4 days",blood lipid peroxides; taurine 1000 mg/kg,95.8
same,"Blood Lipid Peroxide Levels after administration, 8 days",blood lipid peroxides; taurine 1000 mg/kg,93.8
same,"Blood Lipid Peroxide Levels after administration, 12 days",blood lipid peroxides; taurine 1000 mg/kg,87.5
same,"Blood Total Cholesterol Levels after administration, 4 days",blood total cholesterol,95.9
same,"Blood Total Cholesterol Levels after administration, 8 days",blood total cholesterol,90.2
same,"Blood Total Cholesterol Levels after administration, 12 days",blood total cholesterol,87.2
"CC(=O)Oc1c(C)c(C)c2c(c1C)CC[C@@](C)(CCC[C@H](C)CCC[C@H](C)CCCC(C)C)O2 [Tocoph, d-α-tocopherol acetate]","Blood Triglyceride Levels after administration, 4 days",blood triglycerides; [2],106.3
same,"Blood Triglyceride Levels after administration, 8 days",blood triglycerides; [2],119.0
same,"Blood Triglyceride Levels after administration, 12 days",blood triglycerides; [2],75.9
same,"Blood FFA Levels after administration, 4 days",blood free fatty acids; Tocoph 300 mg/kg,115.4
same,"Blood FFA Levels after administration, 8 days",blood free fatty acids; Tocoph 300 mg/kg,103.1
same,"Blood FFA Levels after administration, 12 days",blood free fatty acids; Tocoph 300 mg/kg,86.2
same,"GOT Levels after administration, 4 days",GOT,114.9
same,"GOT Levels after administration, 8 days",GOT,139.7
same,"GOT Levels after administration, 12 days",GOT,109.1
